# Target: T1, dCTP pyrophosphatase 1 (Homo sapiens, UniProt Q9H773)
# T1 sequence (Q9H773 whole entry): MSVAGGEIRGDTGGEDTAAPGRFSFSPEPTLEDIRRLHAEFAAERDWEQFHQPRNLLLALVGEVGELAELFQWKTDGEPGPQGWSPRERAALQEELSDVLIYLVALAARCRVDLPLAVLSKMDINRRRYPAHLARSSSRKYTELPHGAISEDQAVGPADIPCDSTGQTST
# Experiment: Inhibition of human dCTPase 1
row,Compound,IC50 [nM]
1,CCc1c(C)nc(N2CCN(c3ccc(OC)cc3)CC2)nc1O,1100
2,CCOc1ccc(C(=O)N2CCN(c3cnn(-c4ccccc4)c(=O)c3Cl)CC2)cc1,1200
3,CS(=O)(=O)N1CCN(c2cnn(-c3ccccc3)c(=O)c2Cl)CC1,3200
4,CCc1c(C)nc(N2CCN(c3cccc(OC)c3)CC2)nc1O,1400
5,O=C(c1ccco1)N1CCN(c2nc3ccccc3n3cnnc23)CC1,980
6,Cn1c2ccccc2c2nnc(SCCN3CCCCC3)nc21,1910
7,O=C(c1ccccc1Cl)N1CCN(c2ccc([N+](=O)[O-])c(NC3CC3)c2)CC1,1100
8,CC(C)(C)c1cc(=O)[nH]c(N2CCN(Cc3ccc4c(c3)OCO4)CC2)n1,1100
9,CCNc1cc(N2CCN(C(=O)c3ccc(OC)cc3)CC2)ccc1[N+](=O)[O-],1500

# Compounds with a lower IC50, results first:
row,IC50 [nM],Compound
1,940,CCn1c2ccccc2c2nnc(SCCN3CCCCC3)nc21
2,550,COc1ccc2c(c1)c1nnc(SCCN3CCOCC3)nc1n2C
3,660,COc1ccccc1C(=O)N1CCN(c2cnn(-c3ccccc3)c(=O)c2Cl)CC1
4,810,CCNc1cc(N2CCN(C(=O)c3ccccc3C)CC2)ccc1[N+](=O)[O-]
5,910,CCNc1cc(N2CCN(C(=O)c3ccc(CC)cc3)CC2)ccc1[N+](=O)[O-]

# Source: ChEMBL document CHEMBL4052744, “Diverse heterocyclic scaffolds as dCTP pyrophosphatase 1 inhibitors. Part 1: Triazoles, triazolopyrimidines, triazinoindoles, quinoline hydrazones and arylpiperazines” (Bioorg Med Chem Lett, 2017)
